Assay results from patent US10732092B2, “Analysis of single cell mechanical phenotyping for metastatic detection” (University of Maryland, College Park, priority 2015, dated 2020).

Experiments:
NIH 3T3 cell line [1] = assay: Brillouin flow cytometry of CytoD-treated suspended cells (setup of FIG. 12); format: cell-based
Description: FIG. 12 illustrates an exemplary embodiment of the current invention resulting from a novel combination of an epi-detection path to excite/collect Brillouin signal, a monitoring imaging modality, a microfluidic device (or other cell plating device), a Brillouin spectrometer and a computer with software that links all of these sub-components. A first incoming illuminating beam 1210 is focused onto one spot inside a microfluidic device 1230 by using a beam splitter 1211 and an objective lens 1212. The illuminating laser beam 1210 may be a laser beam. In one embodiment, the first incoming laser beam 1210 is focused into spot of 1 to 10 μm. The backward Brillouin scattering light is collected by the same objective lens 1212 and guided to a Brillouin spectrometer 1215 via the beam splitter 1211, a reflected mirror 1213, and a coupling lens 1214. The Brillouin spectrometer 1215 is a device that can measure the Brillouin frequency shift accurately. One example of the Brillouin spectrometer 1215 is disclosed in Scarcelli Polachech 2015 Nature Methods Above the microfluidic device 1230, there is a bright-field microscope consisting of a second light source 1220 (usually has a different wavelength from laser beam 1210), a beam splitter 1221, a tube lens 1222, an objective lens 1224, and a 2D image recording device 1225. The purpose of this microscope setup is to monitor the flowing status of the cells inside the microfluidic device 1230. In one embodiment, the microscope setup further contains a spectral filter 1223, which blocks the light from the laser beam 1210, but allows the light from a light source 1220 to pass. […]
In yet another embodiment, a second approach, named as image-guided alignment, may be used to align the flowing cell to the focused spot of the laser beam 1210. […] Suppose a cell 1630 is flowing along y-direction (from top to bottom), once it appears in the field of view, its location (x1) and the horizontal shift (x0-x1) with respect to the focused spot 1620 can be determined. […] In this case, all of the measured data points were used to plot the histogram graph in FIG. 17a. […]

cells (nucleus) = assay: Brillouin and fluorescence 2D imaging of cells with and without CytoD treatment (setup of FIG. 21); format: cell-based; conditions: treated vs control group, FIGS. 23a, 23b
Procedure: FIG. 21 illustrates a Brillouin spectroscopy setup according to another embodiment of the current invention. In this embodiment, a second optical modality is added to acquire a co-registered confocal fluorescence image of the cell simultaneously when the cell is probed by the Brillouin beam. The second optical modality may comprise a dichroic mirror 2127, a tube lens 2122, a pinhole mask 2126, and a photo-detector 2125. The dichroic mirror 2127 will let the laser beam 2110 and the Brillouin signal pass through but reflects the fluorescence light. Compared with the bright-field microscope of FIG. 12, the confocal configuration has better transverse and lateral optical resolution by rejecting fluorescence light from the out-of-focus plane. In practice, fluorescently labelled cells can be used to identify a sub-region of a cell (e.g., nucleus) and the focused spot of laser beam 2110 can be used to directly excite fluorescence emission. Then, the confocal configuration is used to detect the fluorescence emission light by a camera 2125. Based on the intensity of the fluorescence emission light, one can accurately determine the location of the focused spot (and thus the Brillouin signal) inside the cell so that the Brillouin signal can be assigned to a targeted point. […]
As an example of classifying cells using the embodiment of FIG. 21, effect of CytoD on the cells was analyzed. […]

NIH 3T3 fibroblast cells [2] = assay: Inhibition of actin filament, Brillouin-based label-free flow cytometry; format: cell-based; conditions: cytoD 2 ug/mL for 10 minutes; 232 treated cells; FIG. 33B
Procedure: (§1) Two drugs, cytochalasin D (cytoD) and nocodazole (Noco), were applied to 3T3 cells to inhibit the actin filament and microtubules filament, respectively. NIH 3T3 fibroblast cells purchased from American Type Culture Collection (ATCC) were used for all experiments. Cells were cultured following standard protocols. For inhibitation of microtubules filament, cells were first treated by Noco of 1 ug/mL for 30 minutes, and then harvested by trypsinization and re-suspended in a solution of phosphate-buffered saline (PBS) without Mg^2+ and Ca^2+ at a concentration of ˜0.1 million cells per ML before measurement. Due to the low concentration, few cells were captured by flowing. Instead, a single cell in suspension was imaged after it was delivered into the microfluidic devices. […] The Brillouin shift of the treated cell 3312 is 0.29 GHz higher, indicating a distinct stiffening of its nucleus. Considering the sensitivity of the instrument is ˜0.01 GHz, microtubules filament-inhibited cells were easily identified from normal cells based on the mechanical stiffening of the nucleus.
For inhibition of actin filament, cells were first treated by cytoD of 2 ug/mL for 10 minutes, and then harvested by trypsinization and re-suspended in a solution of phosphate-buffered saline (PBS) without Mg^2+ and Ca^2+ at a concentration of ˜1 million cells per mL before measurement. […]

adherent cells = assay: Cytoskeletal stiffness of adherent cells treated with CytoD; format: cell-based
F-actin = conditions: attached cells treated with CytoD; cited from earlier work
NIH 3T3 fibroblast cells [3] = assay: Inhibition of microtubules filament, Brillouin imaging of single suspended cell; format: cell-based; conditions: Noco 1 ug/mL for 30 minutes; single cell in suspension; FIG. 33A
Procedure: as §1

NIH 3T3 cell line [4] = assay: Chromatin decondensation experiment, Brillouin mechanical cytometry of TSA-treated cells; format: cell-based; conditions: TSA 100 ng/mL, 2 hours
Description: A vertically-polarized laser beam 2628 is first reflected by the polarized beam splitter (PBS) 2634 and focused into the center of a microfluidic channel 2624 from the bottom side by objective lens 2632. In one embodiment, a 11-mW single-mode linearly-polarized 532-nm cw laser (Torus, Laser Quantum) was used as a light source to excite Brillouin scattering. Due to the quarter-wave plate (QWP) 2626, the focused beam was circularly polarized. The backward scattered light was collected by the same objective lens 2632 and passed through the QWP 2626 again. The circularly-polarized light is eventually turned into horizontally-polarized one which is totally transmitted by the PBS 2634. […] The location of the focused Brillouin beam was pre-determined by removing the long-pass filter (LP) 2612. […] In one embodiment, a CCD camera 2610 and the Brillouin spectrometer 2638 were synchronized by a LabVIEW program so that the spectrometer's data can be assigned to the corresponding location of the measured sample. […] When a cell passes through the beam location (white dots indicated by the arrows), its Brillouin shift is measured. […]
Cells are cultured and re-suspended in a solution of phosphate-buffered saline (PBS) without Mg2+ and Ca2+. […] Cells without washing are then ready for fluorescence experiment. […]

In the case of C=C1[C@@H](C)[C@H]2[C@H](Cc3ccccc3)NC(=O)[C@]23[C@H](OC(C)=O)/C=C/[C@@](C)(O)C(=O)[C@@H](C)C/C=C/[C@H]3[C@@H]1O [CytoD, cytochalasin D], the “Brillouin frequency shift of cytoplasm peaks” value (NIH 3T3 cell line [1]; NIH 3T3, suspended after trypsinization, CytoD 0.5, 2, 5 ug/ml, FIGS. 20b-20e) was “almost no change”, the “stiffness of the cells (average Brillouin frequency shift over the whole cell)” value (NIH 3T3 cell line [1]; NIH 3T3, suspended in PBS, CytoD 0.5, 2 and 5 ug/ml, FIG. 20a) was “dose dependent effect” and the “Brillouin frequency shift of nucleus peak (nucleus stiffness)” value (NIH 3T3 cell line [1]; NIH 3T3, suspended, increasing dose of CytoD 0.5, 2, 5 ug/ml, FIGS. 20b-20e) was “nucleus is getting softer”. For the same compound, the “nucleus stiffness (Brillouin signal vs fluorescence intensity)” value (cells (nucleus)) was “much softened”, the “decrease of averaged Brillouin shift of the nucleus, treated group vs control group” value (NIH 3T3 fibroblast cells [2]) was 0.12 GHz and the cytoskeletal stiffness (adherent cells) was “markedly reduced”. The F-actin (F-actin) was “dramatically reduced”.
For COC(=O)Nc1nc2ccc(C(=O)c3cccs3)cc2[nH]1 [Noco, nocodazole], the “increase of averaged Brillouin shift of the nucleus, treated cell vs control” value (NIH 3T3 fibroblast cells [3]) was 0.29 GHz.
For CC(/C=C/C(=O)NO)=C\[C@@H](C)C(=O)c1ccc(N(C)C)cc1 [TSA, trichostatin A], the “Brillouin shift of the nucleus after treatment” value (NIH 3T3 cell line [4]; control nucleus 7.80 GHz, 356 treated cells) was 7.71 GHz and the “Brillouin shift of the cytoplasm after treatment” value (NIH 3T3 cell line [4]; same as control) was 7.56 GHz.
